What was measured:
Type in all cases: cell-based
Nrf2 [1] = target: T1, Nrf2 (Homo sapiens, UniProt Q16236); assay: Nrf2 signaling fluorescent reporter assay in human retinal epithelial cell line; design: host or cells: human retinal epithelial cell line
T1 sequence (Q16236 1-605): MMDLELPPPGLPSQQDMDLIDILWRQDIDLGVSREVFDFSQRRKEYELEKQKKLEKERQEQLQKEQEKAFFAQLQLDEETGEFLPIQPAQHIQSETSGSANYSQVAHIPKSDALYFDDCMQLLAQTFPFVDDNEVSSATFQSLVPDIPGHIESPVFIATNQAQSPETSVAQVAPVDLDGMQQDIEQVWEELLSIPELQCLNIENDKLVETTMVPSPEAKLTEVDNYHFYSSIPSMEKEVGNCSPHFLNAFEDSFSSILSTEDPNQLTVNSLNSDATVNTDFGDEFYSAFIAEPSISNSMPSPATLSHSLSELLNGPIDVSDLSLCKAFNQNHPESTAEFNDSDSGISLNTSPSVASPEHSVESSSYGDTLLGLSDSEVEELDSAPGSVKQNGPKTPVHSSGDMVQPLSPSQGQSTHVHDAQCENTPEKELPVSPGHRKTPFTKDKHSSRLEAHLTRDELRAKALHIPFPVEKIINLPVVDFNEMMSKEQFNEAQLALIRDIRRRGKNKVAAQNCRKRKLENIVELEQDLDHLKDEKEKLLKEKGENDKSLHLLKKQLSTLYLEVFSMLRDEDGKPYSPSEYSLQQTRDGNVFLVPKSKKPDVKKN

human NF-κB = assay: NF-κB antagonist reporter assay (NF-κB GRE-luciferase, HEK293 cells);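 further: reporter cells carry native NF-κB receptor with firefly luciferase under upstream response elements, with a vehicle control included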
Nrf2 [2] = target: T1, Nrf2; assay: Nrf2 agonist reporter assay (native receptor, ARE-luciferase, CV1 cells); design: comprising either the native receptor (Nrf2 and NF-κB); expressed in transfected cells; host or cells: CV1

**Q.** How did the “activation of Nrf2” value (Nrf2 [1]; 100 μM and 30 μM against a control) turn out when `O=C(O)CCCCC1CCSS1` (racemic) [Alpha lipoic acid, alpha lipoic acid] was run?
**A.** The value was “demonstrated activation of Nrf2 at both 100 μM and 30 μM”.

**Q.** And the “minimum inducing concentration (Nrf2)” value (Nrf2 [1]; human retinal epithelial cell line)?
**A.** Its value is 1.75 µM.

**Q.** What about the “NF-κB % Inhibition” value (human NF-κB; 1.42 μg/ml active ingredient) of the same compound?
**A.** Its value is 3.1%.

**Q.** And the “NF-κB % Inhibition” value (human NF-κB; 4.25 μg/ml active ingredient)?
**A.** Its value is −0.70%.

**Q.** And the “NF-κB % Inhibition” value (human NF-κB; 12.7 μg/ml active ingredient)?
**A.** The value was −6.1%.

**Q.** What about the “NF-κB % Inhibition” value (human NF-κB; 38.23 μg/ml active ingredient) of the same compound?
**A.** Its value is 5.9%.

**Q.** What about the “NF-κB % Inhibition” value (human NF-κB; 114.70 μg/ml active ingredient) of the same compound?
**A.** Its value is −14%.

**Q.** And the “Nrf2 Fold-Activation” value (Nrf2 [2]; 1.42 μg/ml active ingredient)?
**A.** Its value is 1.4 fold.

**Q.** And the “Nrf2 Fold-Activation” value (Nrf2 [2]; 4.25 μg/ml active ingredient)?
**A.** The value was 1.4 fold.

**Q.** What about the “Nrf2 Fold-Activation” value (Nrf2 [2]; 12.7 μg/ml active ingredient) of the same compound?
**A.** The value was 1.5 fold.

**Q.** And the “Nrf2 Fold-Activation” value (Nrf2 [2]; 38.23 μg/ml active ingredient)?
**A.** The value was 1.5 fold.

**Q.** And the “Nrf2 Fold-Activation” value (Nrf2 [2]; 114.70 μg/ml active ingredient)?
**A.** The value was 2.4 fold.

**Q.** What about the “agonist activity against human Nrf2” value (Nrf2 [2]; at the concentrations tested) of the same compound?
**A.** Its value is “very low-level agonist activity”.
